Like-named read-outs stand apart in the source and are kept apart here.
Columns and labels:
mice [1] = test system: mice
patients = conditions: ref Post et al. in press; cited from earlier work
animals = conditions: ref Post et al. in press; cited from earlier work
rodents = conditions: ref Jenck et al., 1997, 2000; cited from earlier work
mice [2] = assay: Elevated plus maze; format: in vivo, mouse; conditions: for EPM activity (Table 1 summary): in vivo, mice
NOP(+/+) mice = assay: Elevated plus maze; format: in vivo, mouse; conditions: Ro 65–6570 0.1 mg/kg, i.p.; 8–10 mice per group
mice [3] = assay: Forced swim test; format: in vivo, mouse; conditions: for FST activity (Table 1 summary): in vivo, mice
NOP(−/−) mice = assay: Elevated plus maze; format: in vivo, mouse; conditions: Ro 65–6570 0.1 mg/kg, i.p.; 8–10 mice per group
[4] = target: T1, NOP/β-arrestin 2 interaction (NOP receptor) (Homo sapiens, UniProt P41146); conditions: ref Malfacini et al., 2015, cited from earlier work; for antagonism of N/OFQ stimulated NOP/β-arrestin 2 interaction: against N/OFQ
[5] = target: T2, NOP/G-protein interaction (NOP receptor) (Homo sapiens, UniProt P41146); conditions: 2015, cited from earlier work; for antagonism of N/OFQ effects, NOP/G protein / rank order of antagonist potency, NOP/G protein: against N/OFQ, ref Camarda et al., 2009, Malfacini et al.
β-arrestin 2(−/−) mice [6] = conditions: chronic treatment, various assays; ref David et al., 2009; cited from earlier work
β-arrestin 2(−/−) mice [7] = conditions: ref Beaulieu et al., 2008, David et al., 2009; cited from earlier work
wild type mice = conditions: ref Beaulieu et al., 2008; cited from earlier work
[8] = target: T1, NOP/β-arrestin 2 interaction (NOP receptor); assay: BRET assay, NOP/β-arrestin 2 interaction; format: cell-based; conditions: relative to N/OFQ
[9] = target: T2, NOP/G-protein interaction (NOP receptor); format: biochemical

T1 sequence (P41146 whole entry): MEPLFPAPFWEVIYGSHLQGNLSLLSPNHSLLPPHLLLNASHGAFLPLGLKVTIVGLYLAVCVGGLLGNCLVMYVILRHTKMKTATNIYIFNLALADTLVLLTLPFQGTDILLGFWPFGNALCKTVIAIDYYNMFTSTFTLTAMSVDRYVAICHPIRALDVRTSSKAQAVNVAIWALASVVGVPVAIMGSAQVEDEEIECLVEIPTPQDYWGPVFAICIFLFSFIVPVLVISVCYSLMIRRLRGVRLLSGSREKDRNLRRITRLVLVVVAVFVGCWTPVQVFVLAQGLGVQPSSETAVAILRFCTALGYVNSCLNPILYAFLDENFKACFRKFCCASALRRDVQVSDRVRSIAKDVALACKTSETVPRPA
T2 sequence (P41146 whole entry): as above

Compound: CC(C)[C@H]1CC[C@@H](N2CCC(N3C(=O)C(=O)c4ccccc43)CC2)CC1 [AT-090, 1-(1-(cis-4-isopropylcyclohexyl)piperidin-4-yl)indoline-2,3-dione]
- motor impairment in the rotarod test (mice [1]; AT-090 at the higher dose tested, i.p., Fig. S1): did not evoke any motor impairment

Compound: Cc1nn(-c2ncccc2CO)cc1CN1CCC2(CC1)OCC(F)(F)c1cc(Cl)sc12 [LY2940094]
- antidepressant effects, patients (patients): robust antidepressant effects
- antidepressant effects, animals (animals): robust antidepressant effects

Compound: O=C1NCN(c2ccccc2)C12CCN([C@@H]1CC[C@H]3CCCc4cccc1c43)CC2 [Ro64–6198]
- anxiolytic-like effects (rodents): produce anxiolytic-like effects

Compound: O=C1NCN(c2ccccc2)C12CCN(C1Cc3cccc4cccc1c34)CC2 (stereo not shown) [Ro 65–6570]
- time spent in and number of entries in the open arms (mice [2]; Ro 65–6570 0.01–0.1 mg/kg, i.p., 30 min prior, CD-1 mice, 12–16 per group): increased in a dose-dependent manner
- EPM activity (Table 1 summary) (mice [2]): anxiolytic
- anxiolytic-like effect, NOP(+/+) mice (NOP(+/+) mice): evident in NOP(+/+)
- immobility time (mice [3]; Ro 65–6570 0.1 mg/kg, i.p., 30 min prior, CD-1 mice, 11–16 per group): had no effect
- FST activity (Table 1 summary) (mice [3]): inactive
- motor impairment in the rotarod test (mice [1]; mouse, in vivo): did not produce any motor impairment
- anxiolytic-like effect, NOP(−/−) mice (NOP(−/−) mice): not NOP(−/−) mice

Compound: Cc1cccc2c1CC[C@H](CN1CCC(c3c(Cl)cccc3Cl)CC1)C[C@@H]2O [SB-612111, (−)-cis-1-methyl-7-[[4-(2,6-dichlorophenyl)piperidin-1-yl]methyl]-6,7,8,9-tetrahydro-5H-benzocyclohepten-5-ol]
- antagonism of N/OFQ stimulated NOP/β-arrestin 2 interaction [4]: able to antagonize
- pharmacological activity, β-arrestin (Table 1 summary), previously obtained ([4]; in vitro, β-arrestin): antagonist
- behavior in the EPM, per se (mice [2]; SB-612111 10 mg/kg, i.p., 30 min, CD-1 mice, 10–12 per group): did not modify per se the mouse behavior
- block of the anxiolytic-like effects of Ro 65–6570 (mice [2]; SB-612111 10 mg/kg, i.p., 30 min pre-treatment, against Ro 65–6570 0.1 mg/kg i.p., CD-1 mice): completely block
- EPM activity (Table 1 summary) (mice [2]): inactive
- FST activity (Table 1 summary) (mice [3]): antidepressant
- antagonism of N/OFQ effects, NOP/G protein [5]: antagonized N/OFQ effects showing a competitive type of interaction
- rank order of antagonist potency, NOP/G protein [5]: SB-612111 > UFP-101
- pharmacological activity, G protein (Table 1 summary), previously obtained ([5]; in vitro, G protein, ref Malfacini et al.): antagonist

Compound: CNCCC(Oc1ccc(C(F)(F)F)cc1)c1ccccc1 (stereo not shown) [fluoxetine]
- anxiolytic-like effects in β-arrestin 2(−/−) mice (β-arrestin 2(−/−) mice [6]): failed to induce anxiolytic-like effects
- antidepressant effects, tail suspension test (β-arrestin 2(−/−) mice [7]): did not evoke antidepressant effects

Compound: [Li] [lithium]
- latency to cross, light/dark test, wild type (wild type mice): reduces the latency to cross in wild type
- antidepressant effects, tail suspension test (β-arrestin 2(−/−) mice [7]): did not evoke antidepressant effects

Compound: [Nphe 1, Arg 14, Lys 15]N/OFQ-NH 2 [UFP-101]
- antagonism of N/OFQ stimulated NOP/β-arrestin 2 interaction [4]: able to antagonize
- EPM activity (Table 1 summary) (mice [2]): inactive
- FST activity (Table 1 summary) (mice [3]): antidepressant
- antagonism of N/OFQ effects, NOP/G protein [5]: antagonized N/OFQ effects showing a competitive type of interaction
- rank order of antagonist potency, NOP/G protein [5]: SB-612111 > UFP-101
- stimulation of NOP/β-arrestin 2 interaction (in words) [8]: inactive
- stimulation of NOP/G-protein interaction (in words) [9]: inactive

From article PMC5567672 (Neuropharmacology, 2016)
